In patent publication US5654303A, “Alkyl amine derivatives of substituted quinoxaline 2,3-diones as glutamate receptor antagonists” (Warner-Lambert Company, priority 1995, dated 1997):

How the values were obtained:
AMPA receptors = assay: AMPA receptor binding (Honore et al.), Table 1
[1] = target: kainate site (non-NMDA receptor); assay: Kainate site (non-NMDA receptor) binding (London and Coyle), Table 1 'KA'
CF-1 strain mice = assay: maximal electroshock (MES) assay in mice; type: in vivo; settings: IV
Text: Additionally, a preliminary indicator of in vivo CNS activity related to anticonvulsant activity and potential neuroprotection, is a maximal electroshock (MES) assay in CF-1 strain mice (20-25 g) performed with corneal electrodes by conventional methods as described previously (Krall, et al., Epilepsia, 1988;19:409-428).
MES (IV) Data for Compound 1 from Table 1 [drawing 23]

| Compound | IC50 (AMPA receptors) [µM] | IC50 KA [1] [µM] | further results |
| --- | --- | --- | --- |
| Cc1c([N+](=O)[O-])cc2[nH]c(=O)c(=O)[nH]c2c1CN(C)C [Compound 1] | 1.5 | 4.483 | Ataxic (%) (CF-1 strain mice; 3 min, 10 mg/kg): 0%; Protected (%) (CF-1 strain mice; 3 min, 10 mg/kg): 40%; Ataxic (%) (CF-1 strain mice; 3 min, 30 mg/kg): 20%; Protected (%) (CF-1 strain mice; 3 min, 30 mg/kg): 60%; Ataxic (%) (CF-1 strain mice; 30 min, 10 mg/kg): 40%; Protected (%) (CF-1 strain mice; 30 min, 10 mg/kg): 60%; Ataxic (%) (CF-1 strain mice; 30 min, 30 mg/kg): 40%; Protected (%) (CF-1 strain mice; 30 min, 30 mg/kg): 80% |
| CCCN(CCC)Cc1c(C)c([N+](=O)[O-])cc2[nH]c(=O)c(=O)[nH]c12 [Compound 3] | 1.63 | 24.93 | – |
| CCN(CC)Cc1c(C)c([N+](=O)[O-])cc2[nH]c(=O)c(=O)[nH]c12 [Compound 2] | 0.689 | 6.647 | – |

Now from value to compound, other results behind:

| IC50 (AMPA receptors) [µM] | IC50 KA [1] [µM] | Compound | further results |
| --- | --- | --- | --- |
| 4.64 | 20.50 | CCCCN(CCCC)Cc1c(C)c([N+](=O)[O-])cc2[nH]c(=O)c(=O)[nH]c12 [Compound 4] | – |
| 1.15 | 8.23 | Cc1c([N+](=O)[O-])cc2[nH]c(=O)c(=O)[nH]c2c1CN(C)C(C)C [Compound 7] | – |
| 1.26 | 5.128 | Cc1c([N+](=O)[O-])cc2[nH]c(=O)c(=O)[nH]c2c1CNC1CCCCC1 [Compound 5] | – |
| 3.23 | 5.331 | Cc1c([N+](=O)[O-])cc2[nH]c(=O)c(=O)[nH]c2c1CN(C)C1CCCCC1 [Compound 6] | – |
